# Patent US7183320B2, “Benzoylsulfonamides and sulfonylbenzamidines for use as antitumour agents” (Eli Lilly and Company, priority 2002, dated 2007)
# How the values were obtained:
# Type in all cases: in vivo
# [1] = system: TAXOL SENSITIVE HUMAN COLON ADENOCARCINOMA #15/0; assay: Early stage taxol sensitive human colon adenocarcinoma #15/0 xenograft (Table V); settings: total dose 420 mg/kg: 140 mg/kg/injection IV on days 3, 5, and 7; Balb/C SCID female mice
# From the text: (§1) Conventional Murine Tumor and Human Tumor Xenouraft Assays
# (§2) Inhibition of tumors transplanted into mice is an accepted procedure for studying the efficacy of antitumor agents (Corbett, et al., In vivo Methods for Screening and Preclinical Testing; Use of rodent solid tumors for drug discovery., In: Anticancer Drug Development Guide: Preclinical Screening, Clinical Trials, and Approval, B. Teicher (ed), Humana Press Inc., Totowa, N.J., Chapter 5, pages 75–99 (1997); (Corbett, et al., Int., J. Parmacog., 33, Supplement, 102–122 (1995)). Murine tumors or human xenographs were implanted essentially as described by Corbett in In vivo Methods for Screening and Preclimical Testing; Use of rodent solid tumors for drug discovery. Briefly, the murine tumor or human xenograph was implanted subcutaneously using either 12-gauge trocar implants or counted number of cells. The location for the trocar insertion is midway between the axillary and inguinal region along the side of the mouse. The trocar is slipped approximately ¾ of an inch subcutaneously up toward the axilla before discharging the tumor fragment, and pinching the skin as the trocar is removed., Alternatively, human tumor cells prepared from a […] of donor tumors (5×10^6 cells) were implanted subcutaneously in a hind-leg of a male or female nude mouse (Charles River). Either a test compound in vehicle or vehicle alone was administered by intravenous bolus injection (iv), intraperitoneal injection (ip), or oral gavage (po). Each treatment group, as well as a group of untreated control animals, consisted of five animals per group in each experiment. Subcutaneous tumor response was monitored by tumor volume measurement performed twice each week over the course of the experiment (60–120 days). Body weights were taken as a general measure of toxicity. The subcutaneous tumor data were analyzed by determining the median tumor weight for each treatment group over the course of the experiment and calculating the tumor growth delay as the difference in days for the treatment versus the control tumors to reach a volume of either 500 or 1000 mm^3.
# (§3) The compound of Example 110 was tested against a variety of murine and human tumors substantially as described supra. The parameters measured in each experiment are summarized in the following paragraphs. • Tumor Weight(mg)=(a×b^2)/2 where a=tumor length (mm) and b=tumor width (mm). • Tumor Growth Delay=T−C where T is the median time (days) required for the treatment group tumors to reach a predetermined size, and C is the median time (days) for the control group tumors to reach the same size. Tumor-free survivors are excluded from this calculation, and are tabulated separately (Tumor Free).
# (§4) [formula] • where Tumor Growth Delay is as previously defined and Td is tumor volume doubling time (days), estimated from the best fit straight line from a log-linear growth plot of the control group of tumors in exponential growth (100–800 mg range) • % T/C mass—The treatment and control groups are measured when the control group tumors reach approximately 700 to 1200 mg in size (median group). The median tumor weight of each group is determined (including zeros). The T/C value in percent is an indication of antitumor effectiveness. A T/C≦42% is considered significant antitumor activity. A T/C<10% is considered to indicate highly significant antitumor activity. • Body Weight Loss Nadir—A body weight loss nadir (mean of group) of greater than 20% or drug deaths greater than 20% are considered to indicate an excessively toxic dosage in single course trials. • Activity Rating—the Activity Rating is derived from the Log Kill according to the following table: […]
# [2] = system: MURINE COLON CARCINOMA-26; assay: Early stage murine colon carcinoma-26 (Table X); settings: Balb/C female mice
# From the text: as §1
# Briefly, the murine tumor or human xenograph was implanted subcutaneously using either 12-gauge trocar implants or counted number of cells. The location for the trocar insertion is midway between the axillary and inguinal region along the side of the mouse. The trocar is slipped approximately ¾ of an inch subcutaneously up toward the axilla before discharging the tumor fragment, and pinching the skin as the trocar is removed., Alternatively, human tumor cells prepared from a […] of donor tumors (5×10^6 cells) were implanted subcutaneously in a hind-leg of a male or female nude mouse (Charles River). Either a test compound in vehicle or vehicle alone was administered by intravenous bolus injection (iv), intraperitoneal injection (ip), or oral gavage (po). Each treatment group, as well as a group of untreated control animals, consisted of five animals per group in each experiment. […] Body weights were taken as a general measure of toxicity. The subcutaneous tumor data were analyzed by determining the median tumor weight for each treatment group over the course of the experiment and calculating the tumor growth delay as the difference in days for the treatment versus the control tumors to reach a volume of either 500 or 1000 mm^3.
# as §3, with “The” for “The compound of Example 110 was tested against a variety of murine and human tumors substantially as described supra. The”
# The median tumor weight of each group is determined (including zeros). The T/C value in percent is an indication of antitumor effectiveness.
# [3] = system: TAXOL RESISTANT HUMAN COLON ADENOCARCINOMA #15/MDR; assay: Early stage taxol resistant human colon adenocarcinoma #15/MDR xenograft (Table XII); settings: total dose 500 mg/kg: 100 mg/kg/injection IV on days 3–5 and 13–14; Balb/C SCID female mice
# From the text: as §1, §2, §3, §4
# [4] = total dose 1305 mg/kg: 145 mg/kg/injection IV on days 1, 3, 5, 7, 9, 13, 15, 17, and 19
# [5] = total dose 1600 mg/kg: 100 mg/kg/injection IV BID on days 1, 3, 5, 7, 13, 15, 17, and 21
# [6] = total dose 1740 mg/kg: 145 mg/kg/injection IV on days 1, 2, 3, 7, 8, 13, 14, 16, 18, and 20–22
smiles,measurement,setting,value
"O=C(NS(=O)(=O)c1ccccc1)c1ccc(Cl)cc1Cl [Example 110, N-[2,4-dichlorobenzoyl]phenylsulfonamide]",% BODY WT LOSS AT NADIR,[1],0%
same,% T/C MASS,[1],0%
same,ACTIVITY RATING,[1],++++ (HIGHLY ACTIVE >2.8)
same,DRUG DEATHS,[1],0/5
same,GROWTH DELAY,[1],33.5 days
same,LOG KILL,[1],5.0
same,TUMOR FREE AT DAY 151,[1],1/5
same,% BODY WT LOSS AT NADIR,[2]; [4],+15%
same,% T/C MASS,[2]; [4],28%
same,ACTIVITY RATING,[2]; [4],+ (0.7–1.2)
same,DRUG DEATHS,[2]; [4],0/5
same,GROWTH DELAY,[2]; [4],6 days
same,LOG KILL,[2]; [4],0.9
same,TUMOR FREE AT DAY 31,[2]; [4],0/5
same,% BODY WT LOSS AT NADIR,[2]; [5],+15%
same,% T/C MASS,[2]; [5],34%
same,ACTIVITY RATING,[2]; [5],+++ (2.0–2.8)
same,DRUG DEATHS,[2]; [5],0/5
same,GROWTH DELAY,[2]; [5],15 days
same,LOG KILL,[2]; [5],2.2
same,TUMOR FREE AT DAY 31,[2]; [5],0/5
same,% BODY WT LOSS AT NADIR,[2]; [6],+17%
same,% T/C MASS,[2]; [6],34%
same,ACTIVITY RATING,[2]; [6],+++ (2.0–2.8)
same,DRUG DEATHS,[2]; [6],0/5
same,GROWTH DELAY,[2]; [6],14 days
same,LOG KILL,[2]; [6],2.1
same,TUMOR FREE AT DAY 31,[2]; [6],0/5
same,% BODY WT LOSS AT NADIR,[3],+2.1% ^
same,% T/C MASS,[3],10%
same,ACTIVITY RATING,[3],++ (1.3–1.9)
same,DRUG DEATHS,[3],0/5
same,GROWTH DELAY,[3],11 days
same,LOG KILL,[3],1.4
same,TUMOR FREE AT DAY 38,[3],0/5
